{"source": "patent US20250331521A1", "about": "“NITROGEN-CONTAINING HETEROCYCLIC COMPOUND HAVING AN OXIME GROUP, AGRICULTURAL OR HORTICULTURAL HERBICIDE COMPRISING THE COMPOUND, AND METHOD FOR USING THE COMPOUND OR THE HERBICIDE” (NIHON NOHYAKU CO., LTD., priority 2022, published 2025)"}
{"system": "Barnyard grass (Echinochloa crus-galli)", "assay": "Test Example 1: post-emergence herbicidal effect against paddy weeds", "assay_type": "in vivo", "settings": "144 h, active ingredient concentration 10 ppm, drop treatment in hydroponic medium, 30° C., full light, six days after treatment, compared to non-treatment group, read-out: herbicidal effect against barnyard grass (score, degree of growth inhibition)", "procedure": "Test Example 1: Test for Post-Emergence Herbicidal Effect Against Paddy Weeds Barnyard grass (Echinochloa crus-galli) was seeded and grown in test tubes containing hydroponic medium in an artificial climate chamber or a phytotron. Agrochemical formulations containing the compounds of the present invention as active ingredients prepared according to Formulation Example 1 were separately diluted with water so that the concentration of the active ingredient would be a predetermined concentration and used for drop treatment of the barnyard grass. The barnyard grass was grown in the artificial climate chamber at 30° C. under full light conditions. Six days after agrochemical treatment, the herbicidal effect was evaluated as compared to the non-treatment group according to the following criteria. Criteria for Herbicidal Effect (Degree of Growth Inhibition) and Phytotoxicity • Score 4 90% to 100% herbicidal effect • Score 3 70% to 89% herbicidal effect • Score 2 40% to 69% herbicidal effect • Score 1 1% to 39% herbicidal effect • Score 0 0% herbicidal effect", "units": {"inhibition at 10 ppm": "%"}}
{"smiles": "CCO/N=C(\\N)c1ccc(S(=O)(=O)NC)c(-c2nc(-c3ccccc3)nn2C)n1", "note": "[Compound No. 1-4, (Z)-N′-ethoxy-6-(1-methyl-3-phenyl-1H-1,2,4-triazol-5-yl)-5-(N-methylsulfamoyl)picolinimidamide]", "inhibition at 10 ppm": "70 to 89"}
{"smiles": "CCO/N=C(\\N)c1ccc(S(=O)(=O)NC)c(-c2nc(-c3ccccc3)cn2C)n1", "note": "[Compound No. 2-33, (Z)-N′-ethoxy-6-(1-methyl-4-phenyl-1H-imidazol-2-yl)-5-(N-methylsulfamoyl)picolinimidamide]", "inhibition at 10 ppm": "70 to 89"}
{"smiles": "CCO/N=C(\\N)c1ccc(S(=O)(=O)NC)c(-n2nc(-c3ccccc3)nc2C)n1", "note": "[Compound No. 3-3, (Z)-N′-ethoxy-6-(5-methyl-3-phenyl-1H-1,2,4-triazol-1-yl)-5-(N-methylsulfamoyl)picolinimidamide]", "inhibition at 10 ppm": "70 to 89"}
{"smiles": "CCO/N=C(\\N)c1ccc(S(=O)(=O)NC)c(-n2nc(-c3ccccc3)cc2C)n1", "note": "[Compound No. 4-6, (Z)-N′-ethoxy-6-(5-methyl-3-phenyl-1H-pyrazol-1-yl)-5-(N-methylsulfamoyl)picolinimidamide]", "inhibition at 10 ppm": "70 to 89"}
{"smiles": "CCO/N=C(\\N)c1ccc(C(=O)OCC)c(-c2nn(-c3ccccc3)c(=O)n2C)n1", "note": "[Compound No. 5-3, (Z)-ethyl 6-(N′-ethoxycarbamimidoyl)-2-(4-methyl-5-oxo-1-phenyl-4,5-dihydro-1H-1,2,4-triazol-3-yl)nicotinate]", "inhibition at 10 ppm": "70 to 89"}
{"smiles": "CCO/N=C(\\C)c1ccc(S(C)(=O)=O)c(-n2c(C)nn(-c3ccccc3)c2=O)n1", "note": "[Compound No. 6-1, (E)-4-(6-(1-(ethoxyimino)ethyl)-3-(methylsulfonyl)pyridin-2-yl)-3-methyl-1-phenyl-1H-1,2,4-triazol-5(4H)-one]", "inhibition at 10 ppm": "70 to 89"}
{"smiles": "CCO/N=C(\\N)c1ccc(C(=O)OCC)c(-c2nc(-c3ccccc3)sc2C)n1", "note": "[Compound No. 7-1, (Z)-ethyl 6-(N′-ethoxycarbamimidoyl)-2-(5-methyl-2-phenylthiazol-4-yl)nicotinate]", "inhibition at 10 ppm": "70 to 89"}
{"smiles": "CCO/N=C(\\N)c1ccc(S(=O)(=O)NC)c(-c2csc(-c3ccccc3)n2)n1", "note": "[Compound No. 7-18, (Z)-N′-ethoxy-5-(N-methylsulfamoyl)-6-(2-phenylthiazol-4-yl)picolinimidamide]", "inhibition at 10 ppm": "70 to 89"}
{"smiles": "CCO/N=C(\\N)c1ccc(S(=O)(=O)NC)c(-c2nc(-c3ccccc3)cs2)n1", "note": "[Compound No. 8-2, (Z)-N′-ethoxy-5-(N-methylsulfamoyl)-6-(4-phenylthiazol-2-yl)picolinimidamide]", "inhibition at 10 ppm": "70 to 89"}
{"smiles": "CCO/N=C(\\N)c1ccc(S(C)(=O)=O)c(-c2nc(-c3ccccc3)cs2)n1", "note": "[Compound No. 8-17, (Z)-N′-ethoxy-5-(methylsulfonyl)-6-(4-phenylthiazol-2-yl)picolinimidamide]", "inhibition at 10 ppm": "70 to 89"}
{"smiles": "CCO/N=C(\\N)c1ccc(S(=O)(=O)NC)c(-c2nn(-c3ccccc3)cc2C)n1", "note": "[Compound No. 10-2, (Z)-N′-ethoxy-6-(4-methyl-1-phenyl-1H-pyrazol-3-yl)-5-(N-methylsulfamoyl)picolinimidamide]", "inhibition at 10 ppm": "70 to 89"}
{"smiles": "CCO/N=C(\\N)c1ccc(S(C)(=O)=O)c(-c2nn(-c3ccccc3)cc2C)n1", "note": "[Compound No. 10-16, (Z)-N′-ethoxy-6-(4-methyl-1-phenyl-1H-pyrazol-3-yl)-5-(methylsulfonyl)picolinimidamide]", "inhibition at 10 ppm": "70 to 89"}
{"smiles": "CCO/N=C(\\N)c1ccc(S(C)(=O)=O)c(-c2nn(-c3ccccc3[N+](=O)[O-])nc2C)n1", "note": "[Compound No. 11-95, (Z)-N′-ethoxy-6-(5-methyl-2-(2-nitrophenyl)-2H-1,2,3-triazol-4-yl)-5-(methylsulfonyl)picolinimidamide]", "inhibition at 10 ppm": "70 to 89"}
{"smiles": "CCO/N=C(\\N)c1ccc(S(=O)(=O)NC)c(-c2nc(-c3ccccc3Cl)nn2C)c1", "note": "[Compound No. 17-2, (Z)-3-(3-(2-chlorophenyl)-1-methyl-1H-1,2,4-triazol-5-yl)-N′-ethoxy-4-(N-methylsulfamoyl)benzimidamide]", "inhibition at 10 ppm": "70 to 89"}
{"smiles": "CCO/N=C(\\N)c1ccc(S(=O)(=O)NC)c(-n2nc(C)c(-c3ccccc3)n2)n1", "note": "[Compound No. 20-17, (Z)-N′-ethoxy-6-(4-methyl-5-phenyl-2H-1,2,3-triazol-2-yl)-5-(N-methylsulfamoyl)picolinimidamide]", "inhibition at 10 ppm": "70 to 89"}
